The values that follow come from ChEMBL document CHEMBL5579825, “Exploration of 1-(indolin-1-yl)-2-(thiazol-2-yl)ethan-1-one derivatives as novel anti-HBV agent with potential TLR7-agonistic effect” (Eur J Med Chem, 2024).

The source made the active and inactive calls. The rule behind the calls is not given here.

Data set [1] deals with Hepatitis B virus. The experiment in a line: Antiviral activity against HBV infected in human HepG2.2.15 cells assessed as inhibition of viral DNA replication at 4 uM pre-transfected cells with viral genome followed by compound treatment for 6 days with replacement of medium containing compound on every 2 days by RT-PCR analysis relative to control. The following applies: for inhibition at 4 µM: HepG2.2.15, 144 h, time 6 day; for inhibition: time 6.0 day. The data set is classed as functional.

In data set [2] the test system is Hepatitis B virus. The experiment in a line: Antiviral activity against HBV infected in human HepG2.2.15 cells assessed as inhibition of viral DNA replication pre-transfected cells with viral genome followed by compound treatment for 6 days with replacement of medium containing compound on every 2 days by RT-PCR analysis. It counts as functional, organism-based.

Data set [3] in a line: Selectivity index, ratio of CC50 for human HepG2.2.15 cells to IC50 for HBV infected in human HepG2.2.15 cells assessed as inhibition of viral DNA replication. The data set is classed as toxicity, cell-based. As to conditions: HepG2.2.15 cells, read-out: Ratio CC50/IC50.
A short description of data set [4]: Cytotoxicity against human HepG2.2.15 cells incubated for 72 hrs by CCK8 assay. It counts as toxicity, cell-based, HepG2 2.2.15.
Data set [5] in a line: Inhibition of HBsAg secretion in human HepG2.2.15 cells treated for 6 days with replacement of medium containing compound on every 2 days by […]. The data set is classed as functional, cell-based. The following applies: HepG2 2.2.15.
Data set [6] is described as follows: Selectivity index, ratio of CC50 for human HepG2.2.15 cells to IC50 for HBsAg secretion in human HepG2.2.15 cells. The data set is classed as toxicity, cell-based. As to conditions: for selectivity ratio: HepG2.2.15 cells, read-out: Ratio CC50/IC50.

On to `O=C(Cc1csc(COc2ccc(C(F)(F)F)cc2)n1)N1CCc2ccccc21`, for which, in data set [1], the inhibition at 4 µM is 70.2%. For the same compound, the figures for the 50% inhibitory concentration (IC50) in data set [2] and in data set [5] were 650 nM and 39.5 µM, respectively. In addition, the selectivity ratio in data set [3] was over 76.9; in data set [6], over 1.27. In data set [4], this compound registered a CC50 at 72 h of over 50 µM.
Consider `O=C(Cc1csc(COc2ccc(F)cc2)n1)N1CCc2ccccc21`, for which, in data set [1], the inhibition at 4 µM amounted to 19.1%.
As to `O=C(Cc1csc(COc2cccc(C(F)(F)F)c2)n1)N1CCc2ccccc21`, in data set [1], the inhibition at 4 µM came out at 50.9%. Further, the results for the IC50 in data set [2] and in data set [5] were 3510 nM and 41.6 µM, respectively. Further, the selectivity ratio in data set [3] is over 14.2; in data set [6], over 1.2. The same compound gave a CC50 at 72 h in data set [4] of over 50 µM.
For the compound `O=C(Cc1csc(COc2ccccc2)n1)N1CCc2cccc(F)c21`, the inhibition at 4 µM in data set [1] was found to be 34.6%.
Turning to `O=C(Cc1csc(COc2ccccc2)n1)N1CCc2ccc(Br)cc21`, the inhibition at 4 µM in data set [1] turned out to be 14.1%.
Consider `Cc1cccc(OCc2nc(CC(=O)N3CCc4ccccc43)cs2)c1`, for which the inhibition at 4 µM in data set [1] was 65.4%. For the same compound, the IC50 in data set [2] was 740 nM; in data set [5], 20.4 µM. The selectivity ratio in data set [3] is over 67.6; in data set [6], over 2.45. Further, the CC50 at 72 h in data set [4] was over 50 µM.
`O=C(Cc1csc(COc2ccccc2)n1)N1CCc2c(F)cccc21`: in data set [1], the inhibition at 4 µM was 52.2%. Moreover, the IC50 in data set [2] was 3900 nM; in data set [5] it was 30.5 µM. Besides, the selectivity ratio is over 12.8 in data set [3] and over 1.64 in data set [6]. Further, the CC50 at 72 h in data set [4] is over 50 µM.
For the compound `O=C(Cc1csc(COc2cccc(F)c2)n1)N1CCc2ccccc21`, the inhibition entry in data set [1] was “inactive”.
On to `COc1cccc2c1CCN2C(=O)Cc1csc(COc2ccccc2)n1`, for which the inhibition at 4 µM in data set [1] is 4.26%.
In the case of `COc1ccccc1OCc1nc(CC(=O)N2CCc3ccccc32)cs1`, the inhibition at 4 µM in data set [1] stood at 45.5%.
Regarding `COc1cccc(OCc2nc(CC(=O)N3CCc4ccccc43)cs2)c1`, in data set [1], the inhibition at 4 µM came out at 8.33%.
In the case of `COc1ccc2c(c1)CCN2C(=O)Cc1csc(COc2ccccc2)n1`, the inhibition at 4 µM in data set [1] worked out at 57.7%. The half-maximal inhibitory concentration (IC50) in data set [2] amounted to 2840 nM; in data set [5], 39.1 µM. The results for the selectivity ratio in data set [3] and in data set [6] were over 17.6 and over 1.28, respectively. This compound also registered a 50% cytotoxic concentration (CC50) at 72 h in data set [4] of over 50 µM.
Consider `COc1ccc2c(c1)N(C(=O)Cc1csc(COc3ccccc3)n1)CC2`, for which, in data set [1], the inhibition at 4 µM stood at 18.6%.
Take `O=C(Cc1csc(COc2cccc(Cl)c2)n1)N1CCc2ccccc21`: the inhibition result in data set [1] was “inactive”.
Regarding `O=C(Cc1csc(COc2ccccc2C(F)(F)F)n1)N1CCc2ccccc21`, the inhibition at 4 µM in data set [1] was determined as 74.5%. Besides, the IC50 in data set [2] is 660 nM; in data set [5], over 50 µM. Besides, the selectivity ratio in data set [3] is over 75.8. Besides, in data set [4], the CC50 at 72 h is over 50 µM. Also, the “Ratio CC50/IC50” value in data set [6] is recorded as “Not Active”.
In the case of `O=C(Cc1csc(COc2ccccc2)n1)N1CCc2cc(F)ccc21`, the inhibition at 4 µM in data set [1] was 18.7%.
Turning to `O=C(Cc1csc(COc2ccccc2)n1)N1CCc2c(Br)cccc21`, the inhibition result in data set [1] is “inactive”.
Take `COc1ccc(OCc2nc(CC(=O)N3CCc4ccccc43)cs2)cc1`: the inhibition at 4 µM in data set [1] was determined as 34.5%.
Same read-out and setting: next, `COc1cccc2c1N(C(=O)Cc1csc(COc3ccccc3)n1)CC2`: 41.3%.
On to `Cc1ccc2c(c1)N(C(=O)Cc1csc(COc3ccccc3)n1)CC2`, for which the inhibition result in data set [1] is “inactive”.
In the case of `Cc1ccc(OCc2nc(CC(=O)N3CCc4ccccc43)cs2)cc1`, the inhibition at 4 µM in data set [1] is 39.4%.
Same read-out and setting: next, `Cc1ccccc1OCc1nc(CC(=O)N2CCc3ccccc32)cs1`: 22.6%.
Still for that read-out and setting: next, `O=C(Cc1csc(COc2ccccc2)n1)N1CCc2ccc(F)cc21`: 34.2%; `O=C(Cc1csc(COc2ccccc2Cl)n1)N1CCc2ccccc21`: 15.7%.
For the compound `O=C(Cc1csc(COc2ccccc2)n1)N1CCc2cccc(Cl)c21`, the inhibition at 4 µM in data set [1] came out at 65.9%. Also, the IC50 is 1010 nM in data set [2] and over 50 µM in data set [5]. In data set [3], the selectivity ratio was over 49.5. This compound also registered a CC50 at 72 h in data set [4] of over 50 µM. The “Ratio CC50/IC50” value in data set [6] is reported as “Not Active”.
As to `O=C(Cc1csc(COc2ccc(Br)cc2)n1)N1CCc2ccccc21`, in data set [1], the inhibition at 4 µM stood at 25.7%.
Take `O=C(Cc1csc(COc2ccccc2)n1)N1CCc2ccc(Cl)cc21`: in data set [1], the inhibition at 4 µM was found to be 59.6%. Moreover, the IC50 amounted to 620 nM in data set [2] and 42.2 µM in data set [5]. The selectivity ratio in data set [3] was over 80.7; in data set [6] it was over 1.19. Also, in data set [4], the half-maximal cytotoxic concentration (CC50) at 72 h is over 50 µM.
As to `Cc1ccc2c(c1)CCN2C(=O)Cc1csc(COc2ccccc2)n1`, the inhibition at 4 µM in data set [1] stood at 40.5%.
The same measure, in the same setting: next, `O=C(Cc1csc(COc2ccccc2)n1)N1CCc2c(Cl)cccc21`: 33.9%.
On to `O=C(Cc1csc(COc2ccccc2Br)n1)N1CCc2ccccc21`, for which the inhibition result in data set [1] is “inactive”.
For `O=C(Cc1csc(COc2cccc(Br)c2)n1)N1CCc2ccccc21`, the inhibition at 4 µM in data set [1] came out at 73.4%. Also, the IC50 in data set [2] was 840 nM; in data set [5] it was 42.7 µM. The selectivity ratio in data set [3] is over 59.5; in data set [6], over 1.17. Further, the CC50 at 72 h in data set [4] is over 50 µM.
Consider `O=C(Cc1csc(COc2ccccc2)n1)N1CCc2cc(Br)ccc21`, for which the inhibition at 4 µM in data set [1] is 94%. The results for the IC50 in data set [2] and in data set [5] were 380 nM and over 50 µM, respectively. Further, the selectivity ratio in data set [3] is over 132. The CC50 at 72 h in data set [4] was over 50 µM. Besides, the “Ratio CC50/IC50” value in data set [6] is “Not Active”.
In the case of `O=C(Cc1csc(COc2ccccc2)n1)N1CCc2ccccc21`, the inhibition at 4 µM in data set [1] was 45.4%. In addition, the results for the IC50 in data set [2] and in data set [5] were 17200 nM and over 50 µM, respectively. Further, in data set [3], the selectivity ratio was over 2.91. The compound further came in with a CC50 at 72 h in data set [4] of over 50 µM. Moreover, the “Ratio CC50/IC50” value in data set [6] is on record as “Not Active”.
As for `Cc1cccc2c1N(C(=O)Cc1csc(COc3ccccc3)n1)CC2`, the inhibition at 4 µM in data set [1] stood at 13.9%.
Regarding `O=C(Cc1csc(COc2ccccc2F)n1)N1CCc2cc(Br)ccc21`, the inhibition at 4 µM in data set [1] worked out at 72.6%. Further, the IC50 in data set [2] is 430 nM; in data set [5] it was 44.7 µM. For the same compound, the selectivity ratio was over 116 in data set [3] and over 0.89 in data set [6]. The compound also displayed a half-maximal cytotoxic concentration (CC50) at 72 h in data set [4] of over 50 µM.
Regarding `O=C(Cc1csc(COc2ccccc2)n1)N1CCc2cccc(Br)c21`, the inhibition at 4 µM in data set [1] is 51.6%. For the same compound, the half-maximal inhibitory concentration (IC50) in data set [2] is 3070 nM; in data set [5], over 50 µM. For the same compound, in data set [3], the selectivity ratio is over 16.3. For the same compound, the CC50 at 72 h in data set [4] is over 50 µM. Besides, in data set [6], the “Ratio CC50/IC50” value was “Not Active”.
